Experimental findings from US7915276B2, “Berberrubine derivatives having antifungal activities” (priority 2006, dated 2011) are described below.

The target of experiment [1] is T1, chitin synthase 1 of Candida albicans chs2 Δ chs 3 Δ (Candida albicans, UniProt P23316).
T1 construct: Crude enzyme was prepared using the Candida albicans chs2 Δ chs 3 Δ mutant; endogenous in cells; host or cells: Candida albicans chs2Δ/chs2Δ chs3Δ/chs3Δ mutant; 130,000 x g membrane pellet
The experiment is described as follows: In vitro enzyme assay for chitin synthase 1 of Candida albicans (enzyme 1). In kind it is biochemical. The conditions noted are these: relative to polyoxin D (50% inhibitory activity = value 5). As to the method: Crude enzyme was prepared using the Candida albicans chs2 Δ chs 3 Δ mutant (chs2 Δ::hisG/chs2 Δ::hisG chs3 Δ::hisG/chs3 Δ::hisG) strain, which can only produce the chitin synthase 1. The strain was inoculated with the SDA (Sabouraud dextrose agar) culture medium (4% dextrose, 1% peptone, pH 5.6) and cultured at 30° C. for 15-17 hours until the absorbance at 550nm reaches 0.7. The cells were collected and suspended in a 50 mM Tris-HCl (pH 7.5) buffer solution containing 5 mM magnesium acetate. After centrifugation at 8,000×g for 10 minutes, the pellets were suspended in the same Tris-HCl buffer solution. The suspension was divided into aliquots in 50 mL conical test tubes. After adding glass beads, the cells were disrupted by vigorously vortexing with an interval of 30 seconds. The cell residues were removed by centrifuging at 3,000×g for 5 minutes. The supernatant was ultra-centrifuged at 130,000×g for 1 hour. The resultant pellets were collected and suspended in 50 mM Tris-HCl (pH 7.5) containing 33% glycerol, to a final volume of 1.6 mg/g (wet weight) of yeast used. The suspension was divided into aliquots and kept at −70° C. until it is used.
(§1) The inhibitory activities against the chitin synthase 1 of Candida albicans chs2 Δ chs 3 Δ (abbreviated as ‘enzyme 1’) and the chitin synthase 2 of Saccharomyces cerevisiae ECY38-38A(pAS6)(abbreviated as ‘enzyme 2’) was examined for compound Nos. 1 to 70 compound and polyoxin D, a positive control compound.
(§2) The inhibitory activity against the chitin synthase 1 prepared from Candida albicans and the chitin synthase 2 prepared from Saccharomyces cerevisiae were examined as follows. A reaction mixture containing 32 mM Tris-HCl (pH 7.5), 2 mM cobalt acetate, 1.1 mM UDP-[U-^14C]-N-acetyl-d-glucosamine (GlcNAc) (400,000 cpm/μmol), 2 μL of trypsin (0.75 mg/mL), 20 μL of each crude enzyme and 14 μL of each test sample was kept at 30° C. for 15 minutes to activate the enzyme. Then, 2 μL of trypsin inhibitor (1.5 mg/mL) was added and the mixture was kept in an ice bath for 10 minutes to deactivate trypsin. 2 μL of 0.8 M N-acetyl-d-glucosamine was added to a total volume of 50 μL and reaction was performed at 30° C. for 90 minutes. The reaction was stopped using 1 mL of 10% TCA solution and the reaction solution was filtered with a GF/C filter and dried at room temperature. After adding 3 mL of a scintillation cocktail solution, the amount of isotopes was measured using a liquid scintillation counter. Percentage inhibition against each enzyme was calculated by the following Equation 1.
(§3) The control group was not added with a test sample in the reaction mixture and that of the untreated group contained neither the test sample nor the crude enzyme.
(§4) A 50% inhibitory activity of polyoxin D against the enzyme was given the value 5. A compound having the same inhibitory activity as that of polyoxin D at the same concentration was given the value 5. Compounds having the inhibitory activity at 2-fold, 4-fold, 8-fold and 16-fold higher concentrations than that of polyoxin D were given the values of 4, 3, 2 and 1, respectively. On the other hand, compounds having the inhibitory activity at ½, ¼ and ⅛ lower concentrations than that of polyoxin D were given the values of 6, 7 and 8, respectively.

The target of experiment [2] is T2, chitin synthase 2 of Saccharomyces cerevisiae ECY38-38A(pAS6) (Saccharomyces cerevisiae, UniProt P14180).
T2 construct: made in house; host or cells: Saccharomyces cerevisiae ECY38-38A (chs1-23 chs2::LEU2 cal1/csd2) carrying plasmid pAS6, grown in galactose medium; 130,000 x g membrane pellet
T2 sequence (P14180 whole entry): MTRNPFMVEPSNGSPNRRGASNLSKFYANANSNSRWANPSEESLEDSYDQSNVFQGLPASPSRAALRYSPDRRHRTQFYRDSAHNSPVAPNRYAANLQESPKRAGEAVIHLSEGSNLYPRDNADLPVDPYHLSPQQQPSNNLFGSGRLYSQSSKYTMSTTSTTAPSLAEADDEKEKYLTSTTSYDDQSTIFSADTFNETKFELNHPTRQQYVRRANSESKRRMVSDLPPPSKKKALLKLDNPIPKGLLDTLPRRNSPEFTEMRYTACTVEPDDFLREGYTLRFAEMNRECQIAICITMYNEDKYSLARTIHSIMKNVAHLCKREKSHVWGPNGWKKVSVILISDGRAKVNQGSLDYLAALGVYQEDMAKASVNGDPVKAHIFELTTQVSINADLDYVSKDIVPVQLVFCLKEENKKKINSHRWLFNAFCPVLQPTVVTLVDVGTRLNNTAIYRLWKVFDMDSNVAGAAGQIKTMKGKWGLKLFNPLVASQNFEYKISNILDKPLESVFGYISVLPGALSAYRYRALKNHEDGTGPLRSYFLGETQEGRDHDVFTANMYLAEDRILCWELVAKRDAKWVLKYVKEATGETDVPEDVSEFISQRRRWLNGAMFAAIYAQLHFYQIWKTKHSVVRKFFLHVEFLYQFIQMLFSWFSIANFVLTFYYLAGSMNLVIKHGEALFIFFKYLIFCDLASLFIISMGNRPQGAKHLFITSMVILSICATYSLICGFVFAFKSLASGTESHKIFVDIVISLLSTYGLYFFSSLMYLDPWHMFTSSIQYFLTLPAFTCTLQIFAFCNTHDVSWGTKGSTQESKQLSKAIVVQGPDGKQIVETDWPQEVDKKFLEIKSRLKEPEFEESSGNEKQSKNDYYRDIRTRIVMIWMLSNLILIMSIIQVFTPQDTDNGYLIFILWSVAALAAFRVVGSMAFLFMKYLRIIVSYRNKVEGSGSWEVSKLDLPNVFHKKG
Nature of the experiment: In vitro enzyme assay for chitin synthase 2 of Saccharomyces cerevisiae (enzyme 2). In kind it is biochemical. The conditions noted are these: relative to polyoxin D (50% inhibitory activity = value 5). As to the method: Crude enzyme was prepared using the recombinant Saccharomyces cerevisiae ECY38-38A(pAS6) (MATa chs1-23 chs2::LEU2 cal 1/csd 2 ura 3-52 trp 1-1 leu 2-2 pAS6) strain, which can produce the chitin synthase 2 only. The strain was inoculated with the YPG culture medium (1% yeast extract, 2% peptone, 2% galactose) and cultured at 30° C. overnight. Then, it was inoculated with a fresh YPG culture medium and cultured for 15-17 hours until the Absorbance at 550 nm reaches 1.0. The cells were collected and suspended in 50 mM Tris-HCl (pH 7.5) buffer containing 5 mM magnesium acetate. After centrifugation at 8,000×g for 10 minutes, the pellets were suspended in the same Tris-HCl buffer solution. The suspension was divided into aliquots in 50 mL conical test tubes. After adding the glass beads, the cells were disrupted by vigorously vortexing with an interval of 30 seconds. The cell residues were removed by centrifuging at 3,000×g for 5 minutes. The supernatant was ultra-centrifuged at 130,000×g for 1 hour. The resultant pellets were collected and suspended in 50 mM Tris-HCl (pH 7.5) containing 33% glycerol, to a final volume of 1.6 mg/g (wet weight) of yeast used. The suspension was divided into aliquots and kept at −70° C. until it is used.
as §1, §2, §3, §4

Experiment [3] concerns Candida tropicalis ATCC 13803. The experiment is described as follows: In vitro antifungal activity (MIC), NCCLS method. Type of experiment: cell-based. The conditions noted are these: 48 hours. The source says: (§5) Candida albicans ATCC 10231, Candida lusitaniae ATCC 42720, Candida krusei ATCC 6258, Candida tropicalis ATCC 13803, Candida glabrata ATCC 48435, Candida parapsilosis ATCC 34136, Cryptococcus neoformans ATCC 36556, Aspergillus fumigatus ATCC 16424, Aspergillus flavus ATCC 64025, Aspergillus terreus ATCC 46941 and Mucor ramosissimus ATCC 90286 strains for the MIC (minimum inhibitory concentration) measurement were obtained from ATCC (American Type Culture Collection) in the U.S. The Candida albicans A207(clinical isolate) strain was used by isolating it from the patients.
(§6) The determination of MIC was performed according to the NCCLS (National Committee for Clinical Laboratory Standard) method. Each test sample solution was diluted two-fold and inoculated with a fungal suspension to reach a final inoculum size of 5×10^2 to 2.5×10^3 cell/mL. The Cryptococcus neoformans strain was cultured in the RPMI 1640 medium for 72 hours. Other strains were cultured for 48 hours.

The subject of experiment [4] is Aspergillus fumigatus ATCC 16424. The experiment is described as follows: In vitro antifungal activity (MIC), NCCLS method. In kind it is cell-based. The note with it: 48 hours.
From the text: as §5, §6

The subject of experiment [5] is Aspergillus flavus ATCC 64025. Nature of the experiment: In vitro antifungal activity (MIC), NCCLS method. Type of experiment: cell-based. The conditions noted are these: 48 hours.
From the text: as §5, §6

The subject of experiment [6] is Mucor ramosissimus ATCC 90286. Nature of the experiment: In vitro antifungal activity (MIC), NCCLS method. In kind it is cell-based. The note with it: 48 hours.
From the text: as §5, §6

The subject of experiment [7] is Aspergillus terreus ATCC 46941. The experiment is described as follows: In vitro antifungal activity (MIC), NCCLS method. Type of experiment: cell-based. The note with it: 48 hours.
From the text: as §5, §6

For another experiment, the system named is Candida krusei ATCC 6258. The experiment is described as follows: In vitro antifungal activity (MIC), NCCLS method. The conditions noted are these: 48 hours. Type of experiment: cell-based.
From the text: as §5, §6

Experiment [8] has as its system Candida glabrata ATCC 48435. The experiment is described as follows: In vitro antifungal activity (MIC), NCCLS method. The conditions noted are these: Candida glabrata ATCC 48435; 48 hours. Type of experiment: cell-based.
From the text: as §5, §6

For experiment [9], the system named is Cryptococcus neoformans ATCC 36556. Nature of the experiment: In vitro antifungal activity (MIC), NCCLS method. Type of experiment: cell-based. The conditions noted are these: RPMI 1640 medium, 72 hours.
From the text: as §5, §6

The test system of experiment [10] is Candida parapsilosis ATCC 34136. Nature of the experiment: In vitro antifungal activity (MIC), NCCLS method. Type of experiment: cell-based. The note with it: Candida parapsilosis ATCC 34136; 48 hours.
From the text: as §5, §6

Experiment [11] relates to Candida albicans ATCC 10231. The experiment is described as follows: In vitro antifungal activity (MIC), NCCLS method. In kind it is cell-based. The note with it: 48 hours.
From the text: as §5, §6

The test system of experiment [12] is Candida lusitaniae ATCC 42720. The experiment is described as follows: In vitro antifungal activity (MIC), NCCLS method. Type of experiment: cell-based. The conditions noted are these: 48 hours.
From the text: as §5, §6

Experiment [13] relates to Candida albicans A207 (clinical isolate). The experiment is described as follows: In vitro antifungal activity (MIC), NCCLS method. The note with it: 48 hours. Type of experiment: cell-based.
From the text: as §5, §6

Values after ≈ are worked out from the molar mass of the structure shown.

T1 sequence (P23316 whole entry, stated change not applied): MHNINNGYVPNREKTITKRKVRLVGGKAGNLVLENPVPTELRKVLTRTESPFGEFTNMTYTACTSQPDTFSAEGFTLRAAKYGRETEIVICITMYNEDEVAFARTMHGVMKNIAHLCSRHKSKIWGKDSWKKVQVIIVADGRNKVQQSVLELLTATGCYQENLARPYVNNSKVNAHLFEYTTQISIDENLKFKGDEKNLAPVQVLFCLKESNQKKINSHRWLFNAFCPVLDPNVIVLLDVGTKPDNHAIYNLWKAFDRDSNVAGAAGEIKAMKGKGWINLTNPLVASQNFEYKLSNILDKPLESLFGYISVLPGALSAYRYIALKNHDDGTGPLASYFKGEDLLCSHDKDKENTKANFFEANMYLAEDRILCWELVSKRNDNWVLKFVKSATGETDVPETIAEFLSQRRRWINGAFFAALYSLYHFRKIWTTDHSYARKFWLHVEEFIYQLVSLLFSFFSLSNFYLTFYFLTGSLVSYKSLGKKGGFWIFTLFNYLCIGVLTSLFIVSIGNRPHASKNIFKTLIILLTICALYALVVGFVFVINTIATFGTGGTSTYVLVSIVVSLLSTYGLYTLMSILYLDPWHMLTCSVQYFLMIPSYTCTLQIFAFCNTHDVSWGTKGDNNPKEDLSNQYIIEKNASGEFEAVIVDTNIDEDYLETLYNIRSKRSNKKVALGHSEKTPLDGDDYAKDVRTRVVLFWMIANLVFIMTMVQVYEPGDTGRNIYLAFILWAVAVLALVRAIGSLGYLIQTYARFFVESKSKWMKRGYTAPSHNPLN

Consider `COc1ccc2c(Cc3ccc(C(F)(F)F)cc3)c3[n+](cc2c1OCc1ccc(C(C)(C)C)cc1)CCc1cc2c(cc1-3)OCO2.[Br-]` [Compound No. 38, 13-(4-Trifluoromethylbenzyl)-9-O-(4-tert-butylbenzyl)berberrubine bromide], for which the “Relative activity Enzyme 1” value in experiment [1] was 2 (Compounds having the inhibitory activity at 2-fold, 4-fold, 8-fold and 16-fold higher concentrations than that of polyoxin D were given the values of 4, 3, 2 and 1, respectively). In [2], the “Relative activity Enzyme 2” value was 5 (A compound having the same inhibitory activity as that of polyoxin D at the same concentration was given the value 5).

Take `COc1ccc2c(Cc3cc(F)c(F)c(F)c3)c3[n+](cc2c1OCc1ccc(C(C)(C)C)cc1)CCc1cc2c(cc1-3)OCO2.[Cl-]` [Compound No. 61, 13-(3,4,5-Trifluorobenzyl)-9-O-(4-tert-butylbenzyl)berberrubine chloride]: the “Relative activity Enzyme 1” value in experiment [1] is 2 (Compounds having the inhibitory activity at 2-fold, 4-fold, 8-fold and 16-fold higher concentrations than that of polyoxin D were given the values of 4, 3, 2 and 1, respectively). Besides, the “Relative activity Enzyme 2” value in experiment [2] was 4 (Compounds having the inhibitory activity at 2-fold, 4-fold, 8-fold and 16-fold higher concentrations than that of polyoxin D were given the values of 4, 3, 2 and 1, respectively).

On to `COc1cc(Cc2c3[n+](cc4c(OCc5ccc(C(C)(C)C)cc5)c(OC)ccc24)CCc2cc4c(cc2-3)OCO4)cc(OC)c1OC.[Cl-]` [Compound No. 64, 13-(3,4,5-Trimethoxybenzyl)-9-O-(4-tert-butylbenzyl)berberrubine chloride], for which, in experiment [1], the “Relative activity Enzyme 1” value was 2 (Compounds having the inhibitory activity at 2-fold, 4-fold, 8-fold and 16-fold higher concentrations than that of polyoxin D were given the values of 4, 3, 2 and 1, respectively). The “Relative activity Enzyme 2” value in experiment [2] is 4 (Compounds having the inhibitory activity at 2-fold, 4-fold, 8-fold and 16-fold higher concentrations than that of polyoxin D were given the values of 4, 3, 2 and 1, respectively).

Regarding `COc1ccc2c(Cc3ccc(OC(F)(F)F)cc3)c3[n+](cc2c1OCc1ccc(C(C)(C)C)cc1)CCc1cc2c(cc1-3)OCO2.[Cl-]` [Compound No. 67, 13-(4-Trifluoromethoxybenzyl)-9-O-(4-tert-butylbenzyl)berberrubine chloride], the “Relative activity Enzyme 1” value in experiment [1] was 2 (Compounds having the inhibitory activity at 2-fold, 4-fold, 8-fold and 16-fold higher concentrations than that of polyoxin D were given the values of 4, 3, 2 and 1, respectively). In addition, the “Relative activity Enzyme 2” value in experiment [2] is reported as 5 (A compound having the same inhibitory activity as that of polyoxin D at the same concentration was given the value 5).

`COc1ccc2c(Cc3ccc(C(F)(F)F)cc3)c3[n+](cc2c1OCc1ccc(C(C)(C)C)cc1)CCc1cc2c(cc1-3)OCO2.[Cl-]` [Compound No. 70, 13-(4-Trifluoromethylbenzyl)-9-O-(4-tert-butylbenzyl)berberrubine chloride]: the “Relative activity Enzyme 1” value in [1] was 2 (Compounds having the inhibitory activity at 2-fold, 4-fold, 8-fold and 16-fold higher concentrations than that of polyoxin D were given the values of 4, 3, 2 and 1, respectively). For the same compound, the “Relative activity Enzyme 2” value in experiment [2] is 5 (A compound having the same inhibitory activity as that of polyoxin D at the same concentration was given the value 5).

As for `C[C@@H]1[C@H](O)[C@@H](C)/C=C/C=C/C=C/C=C/C=C/C=C/C=C/[C@H](O[C@@H]2O[C@H](C)[C@@H](O)[C@H](N)[C@@H]2O)C[C@@H]2O[C@](O)(C[C@@H](O)C[C@@H](O)[C@H](O)CC[C@@H](O)C[C@@H](O)CC(=O)O[C@H]1C)C[C@H](O)[C@H]2C(=O)O` [amphotericin B, reference compound], the “MIC (minimum inhibitory concentration)” value in [3] turned out to be 0.5 µg/mL (≈ 0.541 µM); in experiment [4] it was 1 µg/mL (≈ 1.08 µM); in experiment [5] it was 4 µg/mL (≈ 4.33 µM); in [6], 0.5 µg/mL (≈ 0.541 µM); in experiment [7], 16 µg/mL (≈ 17.3 µM); in the experiment with Candida krusei ATCC 6258 it was 0.5 µg/mL (≈ 0.541 µM). Besides, the “MIC (minimum inhibitory concentration)” value stood at 1 µg/mL (≈ 1.08 µM) in experiment [8]; 0.125 µg/mL (≈ 0.135 µM) in [9]; 0.5 µg/mL (≈ 0.541 µM) in [10]; 0.5 µg/mL (≈ 0.541 µM) in [11]; 1 µg/mL (≈ 1.08 µM) in [12]; 0.5 µg/mL (≈ 0.541 µM) in experiment [13].
